ChEMBL document CHEMBL4507291 (2021)

Key:
[1] = test system: Epidermal growth factor receptor (Homo sapiens), P00533 [UNDEFINED MUTATION]
[2] = target: Tyrosine-protein kinase ABL2 (Homo sapiens) (UniProt P42684)
[3] = target: AP2-associated protein kinase 1 (Homo sapiens) (UniProt Q2M2I8)
[4] = test system: eIF-2-alpha kinase GCN2 (Homo sapiens), Q9P2K8 [S808G]
[5] = target: 5-hydroxytryptamine receptor 1E (Homo sapiens) (UniProt P28566); conditions: Compound concentration 10.0 uM
[6] = target: Macrophage colony-stimulating factor 1 receptor (Homo sapiens) (UniProt P07333)
[7] = target: Sodium-dependent serotonin transporter (Homo sapiens) (UniProt P31645); conditions: Compound concentration 10.0 uM
[8] = target: Fibroblast growth factor receptor 4 (Homo sapiens) (UniProt P22455)
[9] = target: Phosphatidylinositol 4-phosphate 3-kinase C2 domain-containing subunit beta (Homo sapiens) (UniProt O00750)
[10] = target: Activin receptor type-2B (Homo sapiens) (UniProt Q13705)
[11] = target: Serine/threonine-protein kinase tousled-like 1 (Homo sapiens) (UniProt Q9UKI8)
[12] = target: Bone morphogenetic protein receptor type-1A (Homo sapiens) (UniProt P36894)
[13] = test system: Mast/stem cell growth factor receptor Kit (Homo sapiens), P10721 [V559D,T670I]
[14] = test system: Phosphatidylinositol 4,5-bisphosphate 3-kinase catalytic subunit alpha isoform (Homo sapiens), P42336 [E545A]
[15] = target: Mitogen-activated protein kinase 9 (Homo sapiens) (UniProt P45984)
[16] = test system: Tyrosine-protein kinase ABL1 (Homo sapiens), P00519 [T315I]
[17] = target: Serine/threonine-protein kinase BRSK2 (Homo sapiens) (UniProt Q8IWQ3)
[18] = target: Serine/threonine-protein kinase PAK 3 (Homo sapiens) (UniProt O75914)
[19] = target: Serine/threonine-protein kinase LATS2 (Homo sapiens) (UniProt Q9NRM7)
[20] = target: Sodium-dependent noradrenaline transporter (Homo sapiens, UniProt P23975); conditions: Compound concentration 10.0 uM
[21] = target: Platelet-derived growth factor receptor alpha (Homo sapiens) (UniProt P16234)
[22] = target: MAP kinase-interacting serine/threonine-protein kinase 2 (Homo sapiens) (UniProt Q9HBH9)
[23] = target: T1, 5-hydroxytryptamine receptor 2C (Homo sapiens) (UniProt P28335); conditions: Compound concentration 10.0 uM
T1 sequence (whole entry): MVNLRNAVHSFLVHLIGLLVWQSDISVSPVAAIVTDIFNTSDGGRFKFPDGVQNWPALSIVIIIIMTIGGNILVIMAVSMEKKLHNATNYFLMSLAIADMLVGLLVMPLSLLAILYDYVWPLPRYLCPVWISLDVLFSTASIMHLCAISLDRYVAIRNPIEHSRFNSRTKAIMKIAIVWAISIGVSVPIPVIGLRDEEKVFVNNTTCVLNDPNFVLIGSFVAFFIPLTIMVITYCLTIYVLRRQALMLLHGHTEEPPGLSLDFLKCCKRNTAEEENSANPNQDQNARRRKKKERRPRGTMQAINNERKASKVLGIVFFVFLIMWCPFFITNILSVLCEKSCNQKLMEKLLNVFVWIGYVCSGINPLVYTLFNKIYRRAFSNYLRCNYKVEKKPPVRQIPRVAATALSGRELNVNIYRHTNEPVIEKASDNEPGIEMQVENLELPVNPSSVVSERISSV

[24] = target: Serine/threonine-protein kinase 26 (Homo sapiens) (UniProt Q9P289)
[25] = target: T2, Tyrosine-protein kinase receptor TYRO3 (Homo sapiens) (UniProt Q06418)
T2 sequence (whole entry): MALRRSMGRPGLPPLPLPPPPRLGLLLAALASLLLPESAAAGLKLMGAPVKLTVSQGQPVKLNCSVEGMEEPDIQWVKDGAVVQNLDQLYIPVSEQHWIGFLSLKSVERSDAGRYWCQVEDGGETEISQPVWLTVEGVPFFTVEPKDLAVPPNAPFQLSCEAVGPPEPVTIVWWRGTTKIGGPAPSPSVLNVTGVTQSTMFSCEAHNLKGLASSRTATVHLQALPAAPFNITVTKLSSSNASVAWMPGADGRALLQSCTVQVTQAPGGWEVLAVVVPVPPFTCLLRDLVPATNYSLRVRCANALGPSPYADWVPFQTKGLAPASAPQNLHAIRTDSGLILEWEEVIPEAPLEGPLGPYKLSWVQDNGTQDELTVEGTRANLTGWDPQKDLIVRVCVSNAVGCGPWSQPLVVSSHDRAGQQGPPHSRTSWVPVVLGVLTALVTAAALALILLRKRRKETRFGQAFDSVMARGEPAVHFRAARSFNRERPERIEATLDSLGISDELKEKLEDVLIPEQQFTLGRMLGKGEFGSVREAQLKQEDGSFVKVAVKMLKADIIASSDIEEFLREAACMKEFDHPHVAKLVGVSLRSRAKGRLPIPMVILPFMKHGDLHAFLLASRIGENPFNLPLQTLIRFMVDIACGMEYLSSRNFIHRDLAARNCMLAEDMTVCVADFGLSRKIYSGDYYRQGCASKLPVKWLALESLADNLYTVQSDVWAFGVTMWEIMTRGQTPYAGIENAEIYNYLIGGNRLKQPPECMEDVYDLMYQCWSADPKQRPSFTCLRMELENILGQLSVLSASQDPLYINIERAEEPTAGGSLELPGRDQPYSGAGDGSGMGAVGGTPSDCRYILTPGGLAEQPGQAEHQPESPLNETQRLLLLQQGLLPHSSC

[26] = Compound concentration 1000.0 nM
[27] = Compound concentration 100.0 nM

Platelet-derived growth factor receptor alpha (Homo sapiens), sequence (P16234 whole entry): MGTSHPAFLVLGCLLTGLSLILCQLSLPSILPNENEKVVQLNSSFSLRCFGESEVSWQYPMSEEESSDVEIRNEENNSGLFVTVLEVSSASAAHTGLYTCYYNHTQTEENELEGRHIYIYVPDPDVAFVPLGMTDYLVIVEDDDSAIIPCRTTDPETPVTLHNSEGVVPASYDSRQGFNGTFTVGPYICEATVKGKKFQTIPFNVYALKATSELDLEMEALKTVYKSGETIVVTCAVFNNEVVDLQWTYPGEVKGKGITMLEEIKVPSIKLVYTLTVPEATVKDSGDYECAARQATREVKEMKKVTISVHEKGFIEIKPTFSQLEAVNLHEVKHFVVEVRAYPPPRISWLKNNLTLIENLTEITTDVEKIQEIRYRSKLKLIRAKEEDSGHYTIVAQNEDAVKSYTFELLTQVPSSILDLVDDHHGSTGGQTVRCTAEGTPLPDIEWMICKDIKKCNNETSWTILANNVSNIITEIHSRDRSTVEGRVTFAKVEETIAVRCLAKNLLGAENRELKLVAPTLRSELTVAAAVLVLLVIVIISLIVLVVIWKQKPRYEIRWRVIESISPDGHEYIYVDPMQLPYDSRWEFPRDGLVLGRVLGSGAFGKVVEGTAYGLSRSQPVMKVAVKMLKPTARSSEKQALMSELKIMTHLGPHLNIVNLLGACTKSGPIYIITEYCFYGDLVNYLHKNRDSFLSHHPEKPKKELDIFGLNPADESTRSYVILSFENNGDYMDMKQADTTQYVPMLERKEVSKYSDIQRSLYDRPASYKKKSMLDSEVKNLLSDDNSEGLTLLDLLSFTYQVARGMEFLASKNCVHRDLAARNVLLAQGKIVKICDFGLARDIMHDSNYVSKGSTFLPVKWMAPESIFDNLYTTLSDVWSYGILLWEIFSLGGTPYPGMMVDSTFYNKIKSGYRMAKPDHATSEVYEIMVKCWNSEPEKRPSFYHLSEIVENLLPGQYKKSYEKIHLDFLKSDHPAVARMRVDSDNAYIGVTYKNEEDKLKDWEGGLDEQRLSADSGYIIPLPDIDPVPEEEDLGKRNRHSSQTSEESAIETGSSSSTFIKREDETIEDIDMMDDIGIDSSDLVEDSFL
eIF-2-alpha kinase GCN2 (Homo sapiens), Q9P2K8 [S808G], sequence (Q9P2K8 whole entry S808G): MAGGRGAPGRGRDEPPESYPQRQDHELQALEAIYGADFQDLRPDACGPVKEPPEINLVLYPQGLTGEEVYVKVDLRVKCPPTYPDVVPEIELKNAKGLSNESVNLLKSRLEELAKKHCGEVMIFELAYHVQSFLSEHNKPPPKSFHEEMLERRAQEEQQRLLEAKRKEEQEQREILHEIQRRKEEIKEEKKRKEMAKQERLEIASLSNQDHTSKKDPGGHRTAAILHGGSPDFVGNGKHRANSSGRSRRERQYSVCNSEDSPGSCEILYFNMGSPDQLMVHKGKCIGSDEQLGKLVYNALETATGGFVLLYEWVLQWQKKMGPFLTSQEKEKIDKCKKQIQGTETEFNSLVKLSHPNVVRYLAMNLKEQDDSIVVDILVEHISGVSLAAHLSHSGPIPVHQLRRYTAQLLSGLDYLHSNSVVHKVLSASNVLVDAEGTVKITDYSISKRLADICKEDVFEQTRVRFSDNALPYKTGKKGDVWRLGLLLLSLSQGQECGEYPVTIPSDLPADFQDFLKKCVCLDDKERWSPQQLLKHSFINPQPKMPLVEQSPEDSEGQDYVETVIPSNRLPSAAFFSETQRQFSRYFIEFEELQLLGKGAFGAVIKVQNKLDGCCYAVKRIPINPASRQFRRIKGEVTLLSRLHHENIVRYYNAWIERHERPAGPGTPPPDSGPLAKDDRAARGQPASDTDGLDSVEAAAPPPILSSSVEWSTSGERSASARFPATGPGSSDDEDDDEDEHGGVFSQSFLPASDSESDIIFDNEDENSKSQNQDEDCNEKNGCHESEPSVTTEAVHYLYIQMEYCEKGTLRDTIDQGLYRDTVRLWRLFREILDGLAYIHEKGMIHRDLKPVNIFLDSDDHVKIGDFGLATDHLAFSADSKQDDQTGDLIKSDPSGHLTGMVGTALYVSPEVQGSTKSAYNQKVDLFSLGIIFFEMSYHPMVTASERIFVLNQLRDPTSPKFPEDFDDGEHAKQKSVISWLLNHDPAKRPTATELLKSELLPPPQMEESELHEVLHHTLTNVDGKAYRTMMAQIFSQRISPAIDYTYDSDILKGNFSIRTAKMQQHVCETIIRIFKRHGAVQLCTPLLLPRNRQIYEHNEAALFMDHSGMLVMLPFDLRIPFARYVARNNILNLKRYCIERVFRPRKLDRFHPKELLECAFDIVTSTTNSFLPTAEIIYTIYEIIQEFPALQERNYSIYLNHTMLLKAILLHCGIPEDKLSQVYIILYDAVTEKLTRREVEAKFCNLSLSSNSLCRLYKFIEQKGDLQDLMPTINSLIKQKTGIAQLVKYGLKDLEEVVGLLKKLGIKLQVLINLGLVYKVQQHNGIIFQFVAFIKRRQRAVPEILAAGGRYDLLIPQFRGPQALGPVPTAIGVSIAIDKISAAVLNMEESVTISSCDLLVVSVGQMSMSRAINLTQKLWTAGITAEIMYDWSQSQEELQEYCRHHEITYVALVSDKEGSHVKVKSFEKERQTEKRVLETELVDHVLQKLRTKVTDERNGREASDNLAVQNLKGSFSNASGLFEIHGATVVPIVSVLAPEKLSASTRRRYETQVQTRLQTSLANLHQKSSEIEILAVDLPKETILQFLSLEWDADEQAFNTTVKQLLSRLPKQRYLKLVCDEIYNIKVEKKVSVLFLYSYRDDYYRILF
Activin receptor type-2B (Homo sapiens), sequence (Q13705 whole entry): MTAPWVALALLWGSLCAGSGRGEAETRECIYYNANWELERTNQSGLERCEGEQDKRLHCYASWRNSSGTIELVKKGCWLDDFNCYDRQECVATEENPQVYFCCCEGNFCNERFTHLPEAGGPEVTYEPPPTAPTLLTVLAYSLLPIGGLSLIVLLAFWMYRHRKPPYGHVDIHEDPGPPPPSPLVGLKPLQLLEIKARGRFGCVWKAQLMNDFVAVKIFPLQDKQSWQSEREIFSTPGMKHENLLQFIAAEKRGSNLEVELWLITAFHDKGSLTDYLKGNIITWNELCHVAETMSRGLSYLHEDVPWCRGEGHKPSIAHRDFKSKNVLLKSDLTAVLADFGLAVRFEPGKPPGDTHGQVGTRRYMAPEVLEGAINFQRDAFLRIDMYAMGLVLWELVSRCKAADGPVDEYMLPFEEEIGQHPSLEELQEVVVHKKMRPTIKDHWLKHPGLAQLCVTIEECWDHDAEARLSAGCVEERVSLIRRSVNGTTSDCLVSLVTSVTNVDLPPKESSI
AP2-associated protein kinase 1 (Homo sapiens), sequence (Q2M2I8 whole entry, looked up): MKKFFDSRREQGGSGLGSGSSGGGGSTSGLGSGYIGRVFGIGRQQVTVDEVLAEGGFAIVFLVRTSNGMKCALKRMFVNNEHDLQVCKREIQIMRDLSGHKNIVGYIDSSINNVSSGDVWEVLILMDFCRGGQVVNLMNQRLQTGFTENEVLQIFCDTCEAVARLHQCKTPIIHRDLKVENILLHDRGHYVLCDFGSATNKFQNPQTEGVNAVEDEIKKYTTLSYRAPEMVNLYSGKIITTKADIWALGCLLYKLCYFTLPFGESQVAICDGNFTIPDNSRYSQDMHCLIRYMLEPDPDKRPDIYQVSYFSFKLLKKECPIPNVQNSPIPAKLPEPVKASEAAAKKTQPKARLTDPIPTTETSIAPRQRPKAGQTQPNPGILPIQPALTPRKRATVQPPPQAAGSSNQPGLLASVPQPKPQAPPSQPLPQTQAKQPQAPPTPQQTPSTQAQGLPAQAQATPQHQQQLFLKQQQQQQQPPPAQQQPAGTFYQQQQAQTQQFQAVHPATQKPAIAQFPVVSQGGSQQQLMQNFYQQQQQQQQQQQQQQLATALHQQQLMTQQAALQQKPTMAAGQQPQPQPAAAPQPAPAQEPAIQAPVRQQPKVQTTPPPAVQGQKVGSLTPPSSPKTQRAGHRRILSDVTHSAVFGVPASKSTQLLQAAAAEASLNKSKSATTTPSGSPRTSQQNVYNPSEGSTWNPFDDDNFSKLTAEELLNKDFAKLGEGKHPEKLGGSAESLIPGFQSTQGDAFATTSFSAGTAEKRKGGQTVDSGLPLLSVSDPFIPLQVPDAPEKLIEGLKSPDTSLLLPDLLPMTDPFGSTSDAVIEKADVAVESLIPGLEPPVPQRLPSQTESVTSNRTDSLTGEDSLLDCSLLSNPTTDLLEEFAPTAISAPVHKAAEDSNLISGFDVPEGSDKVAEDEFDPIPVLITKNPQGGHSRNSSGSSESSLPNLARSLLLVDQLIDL
Sodium-dependent serotonin transporter (Homo sapiens), sequence (P31645 whole entry, looked up): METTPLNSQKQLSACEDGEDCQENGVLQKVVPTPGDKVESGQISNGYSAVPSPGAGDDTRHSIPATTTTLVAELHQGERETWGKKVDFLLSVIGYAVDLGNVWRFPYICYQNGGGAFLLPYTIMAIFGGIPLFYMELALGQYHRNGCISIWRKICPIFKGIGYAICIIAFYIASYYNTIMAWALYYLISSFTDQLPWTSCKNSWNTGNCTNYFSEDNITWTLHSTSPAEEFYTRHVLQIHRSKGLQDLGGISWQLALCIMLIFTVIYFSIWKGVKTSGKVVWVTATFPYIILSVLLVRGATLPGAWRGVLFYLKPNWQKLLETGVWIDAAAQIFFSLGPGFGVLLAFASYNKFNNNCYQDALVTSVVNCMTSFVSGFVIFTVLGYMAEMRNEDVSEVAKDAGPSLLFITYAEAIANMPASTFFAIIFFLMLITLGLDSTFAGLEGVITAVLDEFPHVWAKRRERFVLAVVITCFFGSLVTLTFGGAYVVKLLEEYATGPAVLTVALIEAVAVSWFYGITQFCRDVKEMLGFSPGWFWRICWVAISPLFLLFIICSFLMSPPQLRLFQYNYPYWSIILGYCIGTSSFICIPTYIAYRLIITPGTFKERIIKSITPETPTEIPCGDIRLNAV

C[C@@H]1CN(c2cc(-c3nn(C)c4ccc(OC5(C)CC5)cc34)ncn2)C[C@H](C)O1 [MLi-2-NC]
inactive: residual activity [1, 26] 97% | residual activity [2, 26] 100% | residual activity [3, 26] 84% | residual activity [4, 26] 100% | inhibition [5] -0.18% | residual activity [6, 26] 100% | inhibition [7] -3.49% | residual activity [8, 26] 100% | residual activity [9, 26] 70% | residual activity [10, 26] 98% | residual activity [11, 26] 100% | residual activity [12, 26] 85% | residual activity [13, 26] 100% | residual activity [14, 26] 100% | residual activity [15, 26] 78% | residual activity [16, 26] 73% | residual activity [17, 26] 100% | residual activity [18, 26] 100% | residual activity [19, 26] 58% | inhibition [20] 30.6% | residual activity [21, 26] 83% | residual activity [22, 26] 67% | inhibition [23] 18.7% | residual activity [24, 26] 74% | residual activity [25, 26] 93%

C[C@@H]1CN(c2cc(-c3n[nH]c4ccc(OC5(C)CC5)cc34)ncn2)C[C@H](C)O1 [MLi-2]
inactive: residual activity [1, 27] 73% | residual activity [2, 27] 73% | residual activity [3, 27] 100% | residual activity [4, 27] 81% | inhibition [5] -7.52% | residual activity [6, 27] 91% | inhibition [7] -2.29% | residual activity [8, 27] 100% | residual activity [9, 27] 66% | residual activity [10, 27] 99% | residual activity [11, 27] 94% | residual activity [12, 27] 100% | residual activity [13, 27] 95% | residual activity [14, 27] 76% | residual activity [15, 27] 72% | residual activity [16, 27] 72% | residual activity [17, 27] 100% | residual activity [18, 27] 83% | residual activity [19, 27] 68% | inhibition [20] 7.45% | residual activity [21, 27] 75% | residual activity [22, 27] 74% | inhibition [23] 7.65% | residual activity [24, 27] 76% | residual activity [25, 27] 100%
